Columns and labels:
Format in all cases: in vivo
[1] = tested on: blackgrass (Alopecurus myosuroides); experiment: Test A1 preemergence, blackgrass
How it was run: (§1)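 Both timings started from seed in a loam-sand blend. Preemergence pots got a directed soil application immediately; postemergence pots were sprayed when seedlings had one or two leaves and stood 2–10 cm. Each compound was prepared in a non-phytotoxic solvent plus surfactant.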

corn (Zea mays) [2] = experiment: Test A1 preemergence, corn
How it was run: (§2)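 Herbicidal response was scored on plants treated either preemergence, by directed spray onto soil of a loam–sand blend after sowing, or postemergence on potted plants at the one- to two-leaf stage, 2–10 cm high. Test chemicals were carried in a non-phytotoxic solvent mix with surfactant.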

[3] = tested on: Foxtail, Giant (giant foxtail, Setaria faberi); experiment: Test A1 preemergence, Foxtail, Giant
How it was run: as §1

[4] = tested on: goosegrass (Eleusine indica); experiment: Test A1 preemergence, goosegrass
How it was run: as §1

kochia (Bassia scoparia) [5] = experiment: Test A1 preemergence, kochia
How it was run: as §1

[6] = tested on: Oat, Wild (wild oat, Avena fatua); experiment: Test A1 preemergence, Oat, Wild
How it was run: as §1

[7] = tested on: Pigweed, Palmer (palmer amaranth, palmer pigweed, Amaranthus palmeri); experiment: Test A1 preemergence, Pigweed, Palmer
How it was run: as §1

[8] = tested on: ragweed (common ragweed, Ambrosia artemisiifolia); experiment: Test A1 preemergence, ragweed
How it was run: as §1

[9] = tested on: Ryegrass, Italian (Italian ryegrass, Lolium multiflorum); experiment: Test A1 preemergence, Ryegrass, Italian
How it was run: as §1

soybean (Glycine max) [10] = experiment: Test A1 preemergence, soybean
How it was run: as §1

[11] = tested on: wheat (Triticum aestivum); experiment: Test A1 preemergence, wheat
How it was run: as §1

[12] = tested on: blackgrass (Alopecurus myosuroides); experiment: Test A1 postemergence, blackgrass; conditions: Postemergence, 0 to 100 scale (0 no effect, 100 complete control)
How it was run: (§3)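 Seeds were first planted into a blend of loam soil and sand and given a preemergence directed soil spray. In parallel, pots of the same soil were sown for postemergence application once plants reached 2 to 10 cm and the one- to two-leaf stage. Both used surfactant-containing non-phytotoxic solvent formulations.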

corn (Zea mays) [13] = experiment: Test A1 postemergence, corn; conditions: Postemergence
How it was run: as §1

[14] = tested on: Foxtail, Giant (giant foxtail, Setaria faberi); experiment: Test A1 postemergence, Foxtail, Giant; conditions: Postemergence
How it was run: as §3

[15] = tested on: goosegrass (Eleusine indica); experiment: Test A1 postemergence, goosegrass; conditions: Postemergence
How it was run: as §3

kochia (Bassia scoparia) [16] = experiment: Test A1 postemergence, kochia; conditions: Postemergence
How it was run: as §3

[17] = tested on: Oat, Wild (wild oat, Avena fatua); experiment: Test A1 postemergence, Oat, Wild; conditions: Postemergence
How it was run: as §2

[18] = tested on: Pigweed, Palmer (palmer amaranth, palmer pigweed, Amaranthus palmeri); experiment: Test A1 postemergence, Pigweed, Palmer; conditions: Postemergence
How it was run: as §2

[19] = tested on: ragweed (common ragweed, Ambrosia artemisiifolia); experiment: Test A1 postemergence, ragweed; conditions: Postemergence
How it was run: as §2

[20] = tested on: Ryegrass, Italian (Italian ryegrass, Lolium multiflorum); experiment: Test A1 postemergence, Ryegrass, Italian; conditions: Postemergence
How it was run: as §3

soybean (Glycine max) [21] = experiment: Test A1 postemergence, soybean; conditions: Postemergence
How it was run: as §3

[22] = tested on: wheat (Triticum aestivum); experiment: Test A1 postemergence, wheat; conditions: Postemergence
How it was run: as §3

[23] = tested on: galium (catchweed bedstraw, Galium aparine); experiment: Test A1 postemergence, galium; conditions: Postemergence
How it was run: as §3

[24] = tested on: horseweed (Erigeron canadensis); experiment: Test A1 postemergence, horseweed; conditions: Postemergence
From the text: Seeds of plant species selected from, blackgrass (Alopecurus myosuroides), corn (Zea mays), Foxtail, Giant (giant foxtail, Setaria faberi), goosegrass (Eleusine indica), kochia (Bassia scoparia), Oat, Wild (wild oat, Avena fatua), Pigweed, Palmer (palmer amaranth, palmer pigweed, Amaranthus palmeri), ragweed (common ragweed, Ambrosia artemisiifolia), Ryegrass, Italian (Italian ryegrass, Lolium multiflorum), soybean (Glycine max), and wheat (Triticum aestivum) were planted into a blend of loam soil and sand and treated preemergence with a directed soil spray using test chemicals formulated in a non-phytotoxic solvent mixture which included a surfactant. At the same time, plants selected from these crop and weed species and also galium (catchweed bedstraw, Galium aparine) and horseweed (Erigeron canadensis) were planted in pots containing the same blend of loam soil and sand and treated with postemergence applications of test chemicals formulated in the same manner. Plants ranged in height from 2 to 10 cm and were in the one- to two-leaf stage for the postemergence treatment. […] A dash (-) response means no test result.

[25] = tested on: barnyardgrass (Echinochloa crus-galli); experiment: Test B1 flooded paddy test, barnyardgrass; conditions: 250 g ai/ha, Flood, applied to paddy water, 2-leaf stage, visually evaluated after 10 to 14 days
From the text: (§4) A dash (-) response means no test result.

[26] = tested on: ducksalad (Heteranthera limosa); experiment: Test B1 flooded paddy test, ducksalad; conditions: 250 g ai/ha, Flood, applied to paddy water, 2-leaf stage, visually evaluated after 10 to 14 days
From the text: as §4

rice (Oryza sativa) = experiment: Test B1 flooded paddy test, rice; conditions: 250 g ai/ha, Flood, applied to paddy water, 2-leaf stage, visually evaluated after 10 to 14 days
From the text: as §4

[27] = 31 g ai/ha, 0 to 100 scale (0 no effect, 100 complete control)
[28] = 125 g ai/ha, 0 to 100 scale, 0 no effect, 100 complete control
[29] = 31 g ai/ha, 0 to 100 scale (0 no effect, 100 complete control), 10 days

Cc1cc(C)c(N(COC(=O)C(C)(C)C)S(=O)(=O)C(F)(F)F)cc1C(=O)N1CCC(C)CC1 [Compound 353]
70: Plant response rating, Goosegrass [4, 28] | Plant response rating, Galium ([23]; 125 g ai/ha, 0 to 100 scale) | Plant response rating, Horseweed [24, 29]
30: Plant response rating, Corn (corn (Zea mays) [2]; [28]) | Plant response rating, Pigweed, Palmer [7, 27] | Plant response rating, Soybean (soybean (Glycine max) [10]; [28]) | Plant response rating, Goosegrass ([15]; 125 g ai/ha, 0 to 100 scale) | Plant response rating, Pigweed, Palmer ([18]; 125 g ai/ha, 0 to 100 scale)
90: Plant response rating, Barnyardgrass (0 to 100 scale, 0 is no effect, 100 is complete control) [25]
0: Plant response rating, Blackgrass [1, 27] | Plant response rating, Blackgrass [1, 28] | Plant response rating, Kochia (kochia (Bassia scoparia) [5]; [27]) | Plant response rating, Oat, Wild [6, 27] | Plant response rating, Oat, Wild [6, 28] | Plant response rating, Ryegrass, Italian [9, 27] | Plant response rating, Ryegrass, Italian [9, 28] | Plant response rating, Wheat [11, 27] | Plant response rating, Wheat [11, 28] | Plant response rating, Blackgrass ([12]; 31 g ai/ha, 10 days) | Plant response rating, Blackgrass ([12]; 125 g ai/ha) | Plant response rating, Corn (corn (Zea mays) [13]; [29]) | Plant response rating, Corn (corn (Zea mays) [13]; 125 g ai/ha, 0 to 100 scale) | Plant response rating, Goosegrass [15, 29] | Plant response rating, Oat, Wild [17, 29] | Plant response rating, Pigweed, Palmer [18, 29] | Plant response rating, Ryegrass, Italian [20, 29] | Plant response rating, Ryegrass, Italian ([20]; 125 g ai/ha, 0 to 100 scale)
40: Plant response rating, Pigweed, Palmer [7, 28]
60: Plant response rating, Ragweed ([19]; 125 g ai/ha, 0 to 100 scale) | Plant response rating, Soybean (soybean (Glycine max) [21]; 125 g ai/ha, 0 to 100 scale)
100: Plant response rating, Horseweed ([24]; 125 g ai/ha, 0 to 100 scale)
20: Plant response rating, Goosegrass [4, 27] | Plant response rating, Kochia (kochia (Bassia scoparia) [5]; [28]) | Plant response rating, Ragweed [8, 27] | Plant response rating, Ragweed [8, 28] | Plant response rating, Foxtail, Giant [14, 29] | Plant response rating, Ragweed [19, 29] | Plant response rating, Wheat [22, 29] | Plant response rating, Rice (0 to 100 scale, 0 is no effect, 100 is complete control) (rice (Oryza sativa))
80: Plant response rating, Foxtail, Giant [3, 28]
65: Plant response rating, Ducksalad (0 to 100 scale, 0 is no effect, 100 is complete control) [26]
50: Plant response rating, Foxtail, Giant ([14]; 125 g ai/ha, 0 to 100 scale) | Plant response rating, Kochia (kochia (Bassia scoparia) [16]; 125 g ai/ha, 0 to 100 scale) | Plant response rating, Soybean (soybean (Glycine max) [21]; [29]) | Plant response rating, Wheat ([22]; 125 g ai/ha, 0 to 100 scale) | Plant response rating, Galium [23, 29]
10: Plant response rating, Corn (corn (Zea mays) [2]; [27]) | Plant response rating, Foxtail, Giant [3, 27] | Plant response rating, Soybean (soybean (Glycine max) [10]; [27]) | Plant response rating, Kochia (kochia (Bassia scoparia) [16]; [29]) | Plant response rating, Oat, Wild ([17]; 125 g ai/ha, 0 to 100 scale)

Cc1cc(C)c(N(COC(=O)OC(C)C)S(=O)(=O)C(F)(F)F)cc1C1=NOC2CCCC12 (stereo not drawn) [Compound 314]
0: Plant response rating, Blackgrass [1, 27] | Plant response rating, Kochia (kochia (Bassia scoparia) [5]; [27]) | Plant response rating, Oat, Wild [6, 27] | Plant response rating, Oat, Wild [6, 28] | Plant response rating, Ragweed [8, 27] | Plant response rating, Wheat [11, 27] | Plant response rating, Blackgrass ([12]; 31 g ai/ha, 10 days) | Plant response rating, Corn (corn (Zea mays) [13]; [29]) | Plant response rating, Oat, Wild [17, 29] | Plant response rating, Ragweed [19, 29] | Plant response rating, Horseweed [24, 29]
25: Plant response rating, Rice (0 to 100 scale, 0 is no effect, 100 is complete control) (rice (Oryza sativa))
98: Plant response rating, Barnyardgrass (0 to 100 scale, 0 is no effect, 100 is complete control) [25]
70: Plant response rating, Kochia (kochia (Bassia scoparia) [5]; [28]) | Plant response rating, Pigweed, Palmer [7, 27] | Plant response rating, Pigweed, Palmer [7, 28] | Plant response rating, Kochia (kochia (Bassia scoparia) [16]; 125 g ai/ha, 0 to 100 scale) | Plant response rating, Ragweed ([19]; 125 g ai/ha, 0 to 100 scale) | Plant response rating, Ryegrass, Italian ([20]; 125 g ai/ha, 0 to 100 scale) | Plant response rating, Wheat ([22]; 125 g ai/ha, 0 to 100 scale) | Plant response rating, Galium ([23]; 125 g ai/ha, 0 to 100 scale)
80: Plant response rating, Goosegrass [4, 27] | Plant response rating, Goosegrass ([15]; 125 g ai/ha, 0 to 100 scale)
60: Plant response rating, Ragweed [8, 28] | Plant response rating, Goosegrass [15, 29] | Plant response rating, Pigweed, Palmer ([18]; 125 g ai/ha, 0 to 100 scale) | Plant response rating, Galium [23, 29]
20: Plant response rating, Blackgrass [1, 28] | Plant response rating, Soybean (soybean (Glycine max) [10]; [27])
50: Plant response rating, Wheat [11, 28] | Plant response rating, Soybean (soybean (Glycine max) [21]; 125 g ai/ha, 0 to 100 scale) | Plant response rating, Wheat [22, 29] | Plant response rating, Horseweed ([24]; 125 g ai/ha, 0 to 100 scale)
10: Plant response rating, Corn (corn (Zea mays) [2]; [27]) | Plant response rating, Blackgrass ([12]; 125 g ai/ha) | Plant response rating, Foxtail, Giant [14, 29] | Plant response rating, Oat, Wild ([17]; 125 g ai/ha, 0 to 100 scale) | Plant response rating, Pigweed, Palmer [18, 29] | Plant response rating, Ryegrass, Italian [20, 29]
30: Plant response rating, Foxtail, Giant [3, 27] | Plant response rating, Corn (corn (Zea mays) [13]; 125 g ai/ha, 0 to 100 scale) | Plant response rating, Foxtail, Giant ([14]; 125 g ai/ha, 0 to 100 scale) | Plant response rating, Kochia (kochia (Bassia scoparia) [16]; [29])
90: Plant response rating, Foxtail, Giant [3, 28] | Plant response rating, Goosegrass [4, 28] | Plant response rating, Ryegrass, Italian [9, 28] | Plant response rating, Ducksalad (0 to 100 scale, 0 is no effect, 100 is complete control) [26]
40: Plant response rating, Corn (corn (Zea mays) [2]; [28]) | Plant response rating, Ryegrass, Italian [9, 27] | Plant response rating, Soybean (soybean (Glycine max) [10]; [28]) | Plant response rating, Soybean (soybean (Glycine max) [21]; [29])

Reference: patent US20230278972A1, “SUBSTITUTED HALOALKYL SULFONANILIDE HERBICIDES” (FMC Corporation, priority 2020, published 2023)
